This is an account of results in US11259522B2, “Control of resistant pests” (priority 2017, dated 2022).

Data set [1] deals with Rhipicephalus microplus larvae, susceptible non-resistant field strain (NRFS). The data set is described as follows: Larval packet test (LPT), cattle tick larvae, susceptible strain. Format: in vivo. The conditions noted are these: for LC50 (ppm) / LC99 (ppm): NRFS, 24 hours, Probit analysis; for mortality at 1250 ppm: 1,250 ppm. As for the experimental part:
The larval packet test (LPT) is a modification of that first described by Stone and Haydock (1962, Bull. Entomol. Res., 563-578, http://dx.doi.org/10.1017/5000748530004832X) for evaluation of field resistance in cattle tick (Rhipicephalus microplus) larvae.
The first LPT assay was conducted to identify the potential range of flavesone acaricidal activity against larvae of a susceptible non-resistant field strain (NRFS) of R. microplus as a reference strain using a wide range of concentrations (1 in 10 in series).
The test compound, flavesone, 6-isobutyryl-2,2,4,4-tetramethylcyclohexane-1,3,5-trione, 96.7%, was used. As its volatility/evaporative properties were unknown, the LPT method was modified to incorporate the use of suitably-sized polyethylene plastic sheets to envelop the larval packets, minimizing exposure of the test active to the atmosphere.
In addition, the use of the solvent trichloroethylene (TCE) was removed to avoid the time required for evaporation in the preparation of test papers. The test solutions were prepared in olive oil only at the diluent and the papers immediately enveloped in the plastic sheets and sealed with bulldog clips to minimize evaporation.
A stock solution with a concentration of 100,000 ppm (10%) flavesone was prepared in olive oil as the diluent (1.035 mL flavesone (96.7%) to 8.965 mL olive oil) and then further diluted 1 in 10 in series to also give 10,000 ppm, 1,000 ppm, 100 ppm, 10 ppm and 1 ppm concentration. The negative control was olive oil only. No positive control was included in this experiment. Due to the viscosity of the olive oil, all solutions were prepared using reverse pipetting technique.
(§1) Filter papers (75 mm×85 mm Whatman® No. 541), with grid patterns, were impregnated on ½ of the paper with 225 μL of each solution using a micro-pipette and immediately folded in half, enveloped in polyethylene plastic and sealed with 3 bulldog clips. The impregnated papers were kept at room temperature on aluminium trays for a minimum of 60 minutes to allow for dispersal across the grid pattern of the paper prior to aliquoting of larvae. The packets were prepared in duplicate for each concentration, including the negative control.
An 8 dram vial containing approximately 20,000 hatched 7-21 day old NRFS larvae (about 1 g eggs) was opened and set up on a moated tray with a small amount of detergenated water, about 15 to 30 minute before use. Only larvae that migrated to the top of the vial were used in the assay.
(§2) Aliquots of approximately 100 larvae were placed into each packet using plastic disposable forceps and the packets resealed and incubated and 27° C. and 85% relative humidity (RH).
(§3) After 24 hours, the larval packets were opened and the numbers of dead and live larvae were counted under a magnification lamp. Percentage mortality was calculated and, where applicable, corrected using Abbott's Formula (Abbott, 1925, J. Economic Entomology, 18:256-257): […]
(§4) LC50 and LC99 values were determined by Probit mortality vs log concentration analysis. Probit values were derived from “Transformation of Percentages to Probit's Tables” published by Fisher R. A. and Yates F. (1938).
(§5) The LPT Assay of Example 1 was repeated using a narrow range of concentrations, 1 in 2 series, of flavesone to determine LC50 and LC99 values against the susceptible NRFS and the multi-resistant Tiaro reference strain.
The stock solution of flavesone (100,000 ppm) was diluted 1 in 10 with olive oil (1 mL to 9 mL diluent) to give 10,000 ppm, which was then further diluted 1 in 2 in series (5 mL to 5 mL diluent) to give 5,000 ppm, 2,500 ppm, 1,250 ppm, 625 ppm, 312.5 ppm and 156.25 ppm concentrations. […]

Data set [2] concerns Rhipicephalus microplus larvae, multi-resistant Tiaro reference strain. The data set is described as follows: Larval packet test (LPT), cattle tick larvae, multi-resistant strain. Format: in vivo. The conditions noted are these: Example 2, 24 hours. As for the experimental part: as §1, §2, §3, §4, §5
The Tiaro strain of R. microplus comprises of about 30% fluazuron, 60.6% cypermethrin (SP), 57.6% flumethrin (SP), 16.2% amitraz (amidine), 11.3% DDT, 9.3% chlorpyrifos (OP) and 2.4% dieldrin resistance [2014 acaricide resistance profiling].
The stock solution of flavesone (100,000 ppm) was diluted 1 in 10 with olive oil (1 mL to 9 mL diluent) to give 10,000 ppm, which was then further diluted 1 in 2 in series (5 mL to 5 mL diluent) to give 5,000 ppm, 2,500 ppm, 1,250 ppm, 625 ppm, 312.5 ppm and 156.25 ppm concentrations.
For the preparation of the positive control, cypermethrin, a stock solution of a concentration of 10,000 ppm was prepared in 2:1 trichloroethylene (TCE)/olive oil as the solvent ([…] cypermethrin, 94.8% purity, to 10 mL solvent) and then further diluted 1 in 2 in series (5 mL to 5 mL solvent) to also give 5,000 ppm, 2,500 ppm, 1,250 ppm, 625 ppm, 312.5 ppm and 156.25 ppm.
The flavesone papers were prepared as in Example 1.
The cypermethrin papers were impregnated with 670 μL of each solution using a micro-pipette and hung on a rack in a fume-hood to allow papers to dry (evaporation of TCE) for a minimum of 60 minutes. The papers were then folded in half and sealed with three bulldog clips, placed on aluminium trays prior to aliquoting the larvae. All packets were prepared in duplicate.
A dose-response relationship was determined at 24 hours contact exposure.
Concentrations of 1,250 ppm, 625 ppm and 312.5 ppm flavesone concentrations prepared for Example 3 were used on the same day of preparation. Duplicate papers were prepared for both the NRFS and Tiaro strains (including negative controls) as described in Example 2.
Mortality was assessed at 48 hours and LC50 and LC99 values were determined by Probit mortality vs log concentration analysis.

For data set [3], the system named is Halotydeus destructor susceptible population. Put plainly: Coated plastic vial bioassay, redlegged earth mite, susceptible population. Format: in vivo. The conditions noted are these: for LC50: Halotydeus destructor, read-out: LC50 (mg a.i./L). As for the experimental part:
The efficacy of flavesone against H. destructor was assessed using the glass vial technique developed by Hoffmann et al. (1997, Exp. Appl. Acarol., 21:151-162), adapted for plastic vials. A susceptible population of mites was collected from capeweed (Arctotheca calendula) at a Victorian site (37° 40′33″S, 145° 07′ 45″E) that had no known history of insecticide application. Following collection, samples were stored in small plastic containers with leaf material and paper towel to absorb excess moisture. Containers were kept at 4° C. prior to testing.
(§6) The test compositions included 0.1% Tween 20 non-ionic surfactant to aid the spread of insecticides when coating plastic vials. This concentration of Tween 20 has been previously shown to have no toxic effect on H. destructor. For each insecticide concentration tested, 3, 10, 30, 100, 300, 1000, 3000 and 10000 mg a.i./L (ppm), approximately 10 mL of solution was poured into a 15 mL plastic vial and swirled to ensure a complete coating, with excess liquid removed. Eight vials were coated per concentration and were left to dry overnight. Control vials were treated in the same way but with water used in place of test composition.
Eight susceptible H. destructor mites were then placed into each vial along with a leaf of common vetch (Vicia sativa). The leaf was added to provide food and increase humidity. Vials were then sealed with a lid and placed at 18° C. After 4, 6, 8 and 24 hours of exposure, the mites were scored as alive (moving freely), incapacitated (inhibited movement), or dead (no movement over a 5 second period). […]
(§7) The data produced in the assays were assessed for concentrations that caused 50, 90 and 99% mortality (lethal concentration, LC), together with 95% confidence intervals (CIs) and were estimated from observations of mortality after 24 hours exposure using a binomial logistic regression (Robertson & Preisler, 1992, Pesticide Bioassays with Arthropods. CRC: Boca Raton; Venables & Ripley, 2002, Modern Applied Statistics with S. Springer: New York). Population differences were tested by comparing the change in model deviance with and without the population factor (different regression intercepts for each population). Differences in regression slopes between populations were tested by comparing the change in model deviance with and without the population×dose interaction term. The resistance ratio of the insecticide-resistant population was estimated as the ratio of its LC50 to that of the susceptible population. All analyses were performed using R 3.3. (R Core Team 2017, R: A language and environment for statistical computing. R Foundation for Statistical Computing, Vienna, Austria. http://www.R-project.org).

The test system of data set [4] is Halotydeus destructor resistant population (synthetic pyrethroid resistance). The data set is described as follows: Coated plastic vial bioassay, redlegged earth mite, resistant population. Format: in vivo. The conditions noted are these: 24 hours exposure; for LC50: Halotydeus destructor, 24 h. As to the method:
as §6
Eight susceptible H. destructor mites were then placed into each vial along with a leaf of common vetch (Vicia sativa). The leaf was added to provide food and increase humidity. Vials were then sealed with a lid and placed at 18° C. After 4, 6, 8 and 24 hours of exposure, the mites were scored as alive (moving freely), incapacitated (inhibited movement), or dead (no movement over a 5 second period).
The resistant population of H. destructor was collected from a lucerne paddock in the Upper South-East district of South Australia, where resistance to synthetic pyrethroids was confirmed in late 2016.
as §7

For data set [5], the system named is Rhyzopertha dominica strain QRD1440 (resistant to OP protectants and pyrethroids). Put plainly: Grain protectant bioassay on treated wheat, resistant lesser grain borer. The conditions noted are these: Example 5, QRD1440, replicates A, B, C; for F1 Progeny count No. dead/total: further 6 weeks.
Setting [6] is: Rhipicephalus microplus, 24 h, Example 2.
[7] abbreviates: Rhipicephalus microplus, 24 h, Example 3.
Where [8] appears, read: Susceptible population, 24 hours exposure.

Converted amounts (≈) assume the structure as drawn. “And” between values parts separate entries of the source, which are not always exact repeats. Equal values may be shown once. Read-outs that look alike come from different tables or passages of the source.

Broadly, the mortality is the share of the test organisms that died. `CC1(C)C(C=C(Cl)Cl)C1C(=O)OC(C#N)c1cccc(Oc2ccccc2)c1` (centres unmarked) [Cypermethrin, cypermethrin, reference compound]: the “LC50 (ppm)” value was 128 ppm in data set [1] (Example 2); 112 ppm in data set [1] (Example 3); 3082 ppm in data set [2] (Tiaro, Probit analysis). In addition, the “LC99 (ppm)” value is 540 ppm in data set [1] (Example 2); 317 ppm in data set [1] (Example 3); >10,000 ppm in data set [2] (Tiaro, Probit analysis). In addition, the mortality at 2.5 ppm turned out to be 100% in data set [1] (Rhipicephalus microplus, 24 h, Example 2, 2.500 ppm) and 59.7% in data set [2] (Rhipicephalus microplus, 2.500 ppm). The mortality at 156.25 ppm in data set [1] (setting [6]) was determined as 67.3%; in data set [1] (setting [7]), 79.6%; in data set [2] (Rhipicephalus microplus, 156.25 ppm), 0.56%. Moreover, the mortality at 312.5 ppm in data set [1] (setting [6]) worked out at 89%; in data set [1] (setting [7]), 99.2%; in data set [2] (Rhipicephalus microplus, 312.5 ppm) it was 20.4%. Moreover, the mortality at 625 ppm in data set [1] (setting [6]) was 99.6%; in data set [1] (setting [7]) it was 100%; in data set [2] (Rhipicephalus microplus, 625 ppm), 21.9%. The mortality at 1250 ppm stood at 100% in data set [1] (setting [6]); 100% in data set [1] (setting [7]); 20.9% in data set [2] (Rhipicephalus microplus, 1,250 ppm). Moreover, the mortality at 5000 ppm in data set [1] (Rhipicephalus microplus, 24 h, Example 2, 5,000 ppm) is 100%; in data set [2] (Rhipicephalus microplus, 5,000 ppm), 62.2%. In addition, the mortality at 10000 ppm in data set [1] (Rhipicephalus microplus, 24 h, Example 2, 10,000 ppm) came to 100%; in data set [2] (Rhipicephalus microplus, 10,000 ppm) it was 66.8%. This compound also gave a mortality at 39.0625 ppm in data set [1] (Rhipicephalus microplus, 24 h, Example 3, 39.0625 ppm) of 0%. In data set [1] (Rhipicephalus microplus, 24 h, Example 3, 78.125 ppm), this compound displayed a mortality at 78.125 ppm of 20.6%.
Regarding `CCOP(=S)(OCC)Oc1nc(Cl)c(Cl)cc1Cl` [Chlorpyrifos, chlorpyrifos, reference compound], the LC50 worked out at 0.21 µg/mL (≈ 0.599 µM) in data set [3] (24 h) and 1.37 µg/mL (≈ 3.91 µM) in data set [4] (read-out: LC50 (mg a.i./L), Resistant population). Besides, the “LC90 (mg a.i./L)” value is 0.76 mg a.i./L in data set [3] (setting [8]) and 7.76 mg a.i./L in data set [4] (Resistant population). Further, the “LC99 (mg a.i./L)” value in data set [3] (setting [8]) was found to be 3.18 mg a.i./L; in data set [4] (Resistant population), 51.56 mg a.i./L. For the same compound, in data set [4], the “resistance ratio (LC50 of resistant population to that of susceptible population)” value is 6.5 times. Besides, the “F1 Progeny count No. dead/total” value is 2/470 and 3/172 and 3/355 in data set [5] (5 ppm on wheat); 1/350 and 0/317 and 2/232 in data set [5] (10 ppm on wheat). In addition, the “14 Day adult mortality No. dead (total)” value in data set [5] (5 ppm on wheat) was 0/50 (2×) and 1/50; in data set [5] (10 ppm on wheat), 0/50.
In the case of `Cc1c(COC(=O)[C@@H]2[C@H](/C=C(\Cl)C(F)(F)F)C2(C)C)cccc1-c1ccccc1` (racemic) [Bifenthrin, bifenthrin], in data set [3] (setting [8]), the LC50 amounted to 0.04 µg/mL (≈ 0.0946 µM), the “LC90 (mg a.i./L)” value came to 2.66 mg a.i./L and the “LC99 (mg a.i./L)” value is 233.10 mg a.i./L. Moreover, the “resistance ratio (LC50 of resistant population to that of susceptible population)” value in data set [4] is “about 3,500 times”. Further, the LC50 in data set [4] (Resistant population, read-out: LC50 (mg a.i./L)) turned out to be 144 µg/mL (≈ 340 µM). For the same compound, in data set [4] (Resistant population), the “LC90 (mg a.i./L)” value is recorded as 5.4 × 10^5 mg a.i./L and the “LC99 (mg a.i./L)” value is recorded as 4.3 × 10^9 mg a.i./L.
